Measurements reported in US12209261B2, “Media for the expression of recombinant vitamin K-dependent proteins” (CSL Behring Lengnau AG, priority 2015, dated 2025).

Tests used:
[1] = system: recombinant human Factor VII fusion protein; assay: Recombinant Factor VII chromogenic activity in culture supernatants (COASET Factor VII kit); assay type: cell-based; settings: for effect on chromogenic activity of FVII: supernatant at days 7, 9 and 10; for impact on yield and/or activity of FVII: summary in description, supplement present in cell culture medium during FVII expression, FIGS. 1B-8C
Procedure: (§1) Chinese Hamster Ovary cell line that expresses recombinant human Factor VII fusion protein was created using the GS expression system (Lonza). These cells were maintained in commercially available CD-CHO AGT medium (Invitrogen) supplemented with 50 μg/L reduced menadione sodium bisulfite (rMSB) (Richman), 25 μM methionine sulfoximine (MSX) (Sigma) and 1 mg/L insulin (Novo Nordisk). Cells were grown in shake flasks maintained at 37° C. with 8% CO2 atmosphere and subcultured every 3 days to 3×10^5 cells/mL.
Cells from the exponential growth phase of the cultures (at the end of regular 3-day passages) were used for the experiments. The cells were centrifuged, appropriate amount of spent media removed and cell pellets were resuspended in remaining spent media to a cell concentration of 3×10^6 cells/mL. 50 μL of this cell suspension was used to inoculate each well of a polypropylene V-bottom square 96-deepwell plate (Corning) containing 450 μL of a cell culture media based on DMEM/F12 supplemented with different levels of reduced L-glutathione (Sigma). […] All cultures contained 213 μg/L rMSB to support appropriate cellular processing of Factor VII. All liquid handling steps were performed using a Tecan Freedom EVO® 200 robotic platform.
(§2) Culture plates were sealed with a breathable membrane (Corning) to maintain sterility and cultures were maintained at 37° C. with 8% CO2 atmosphere in a shaker incubator (Kuhner) operating at 350 rpm with an oribital diameter of 25 mm.
Recombinant Factor VII chromogenic activity in the cultures were determined from serially diluted supernatant samples obtained at days 7, 9 and 10 (counted from inoculation of the culture) using a commercially available chromogenic kit COASET Factor VII kit (Chromogenix). The assay was adapted for use with the SYSMEX® CS-5100 automated hemostasis analyzer (Siemens Healthcare) and performed according to manufacturers' instructions.
Cells from the exponential growth phase of the cultures (at the end of regular 3-day passages) were used for the experiments. The cells were centrifuged, appropriate amount of spent media removed and cell pellets were resuspended in remaining spent media to a cell concentration of 3×10^6 cells/mL. 50 μL of this cell suspension was used to inoculate each well of a polypropylene V-bottom square 96-deepwell plate (Corning) containing 450 μL of a cell culture media based on DMEM/F12 supplemented with different levels of alpha-ketoglutaric acid (Sigma), malic acid (Sigma), succinic acid (Sigma), oxaloacetic acid (Sigma), fumaric acid (Sigma), citric acid (Sigma) or sodium pyruvate (Sigma). […]
Recombinant Factor VII chromogenic activity in the cultures was determined as described for Example 1.

[2] = system: CHO cells expressing FVII; assay: Determination of cell growth and viability (viable cell density, flow cytometry with propidium iodide); assay type: cell-based, Chinese Hamster; settings: for impact on viable cell density (VCD): summary in description, supplement present in cell culture medium, FIGS. 1A-8A
Procedure: as §1
Cells from the exponential growth phase of the cultures (at the end of regular 3-day passages) were used for the experiments. The cells were centrifuged, appropriate amount of spent media removed and cell pellets were resuspended in remaining spent media to a cell concentration of 3×10^6 cells/mL. 50 μL of this cell suspension was used to inoculate each well of a polypropylene V-bottom square 96-deepwell plate (Corning) containing 450 μL of a cell culture media based on DMEM/F12 supplemented with different levels of reduced L-glutathione (Sigma). The reduced L-glutathione concentration ranges tested were 0.01-15 mM with a corresponding reduced L-glutathione-free negative control. All cultures contained 213 μg/L rMSB to support appropriate cellular processing of Factor VII. All liquid handling steps were performed using a Tecan Freedom EVO® 200 robotic platform.
as §2
The cell density and viability in the culture were determined offline from a sample of culture obtained at day 5 and day 7 (counted from inoculation of the culture) using a MACSQuant® Analyzer 10 flow cytometer (Miltenyi Biotec), utilizing propidium iodide (Miltenyi Biotec) for viability staining. […]
The cell density and viability were determined as described for Example 1.

## N[C@@H](CCC(=O)N[C@@H](CS)C(=O)NCC(=O)O)C(=O)O [L-glutathione, (2S)-2-amino-5-[[(2R)-1-(carboxymethylamino)-1-oxo-3-sulfanylpropan-2-yl]amino]-5-oxopentanoic acid]
[1]; Example 1, reduced L-glutathione 0.01-15 mM, FIGS. 1B and 1C
  effect on chromogenic activity of FVII: increases chromogenic activity of FVII
[1]
  impact on yield and/or activity of FVII: enhances yield and/or activity of FVII
[2]; Example 1, reduced L-glutathione 0.01-15 mM in DMEM/F12-based medium, day 5 and day 7, at most concentrations tested, FIG. 1A
  effect on viable cell density: no effect on the viable cell density
[2]
  impact on viable cell density (VCD): only minor impact on the viable cell density

## CC(=O)C(=O)[O-].[Na+] [Sodium pyruvate, sodium pyruvate, reference compound]
[1]; Example 2, TCA intermediates 0.06-60 mM, sodium pyruvate 0.01-10 mM, FIGS. 2B-8C
  effect on chromogenic activity of FVII: no effect on the chromogenic activity of FVII
[1]
  impact on yield and/or activity of FVII: no impact on yield and/or activity of FVII
[2]
  impact on viable cell density (VCD): only minor impact on the viable cell density
